Assay results from ChEMBL document CHEMBL5291721, “A preclinical secondary pharmacology resource illuminates target-adverse drug reaction associations of marketed drugs” (Nat Commun, 2023).

Experiments:
[1] = target: Synaptic vesicular amine transporter (Rattus norvegicus, UniProt Q01827); type: functional
[2] = target: Type-2 angiotensin II receptor (Homo sapiens, UniProt P50052); type: functional
[3] = target: T1, Type-1 angiotensin II receptor (Homo sapiens, UniProt P30556)
T1 sequence (P30556 whole entry): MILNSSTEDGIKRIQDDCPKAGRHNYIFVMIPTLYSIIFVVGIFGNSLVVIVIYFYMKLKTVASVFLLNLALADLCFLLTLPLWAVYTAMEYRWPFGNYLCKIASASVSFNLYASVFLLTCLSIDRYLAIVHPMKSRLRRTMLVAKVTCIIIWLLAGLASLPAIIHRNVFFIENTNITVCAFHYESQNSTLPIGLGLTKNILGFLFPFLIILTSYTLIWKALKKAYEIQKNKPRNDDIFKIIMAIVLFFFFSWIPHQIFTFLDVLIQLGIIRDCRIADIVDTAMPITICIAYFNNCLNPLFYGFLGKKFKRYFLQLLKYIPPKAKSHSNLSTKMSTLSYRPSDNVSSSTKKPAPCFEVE

[4] = target: T2, Alpha-1A adrenergic receptor (Homo sapiens, UniProt P35348)
T2 sequence (P35348 whole entry): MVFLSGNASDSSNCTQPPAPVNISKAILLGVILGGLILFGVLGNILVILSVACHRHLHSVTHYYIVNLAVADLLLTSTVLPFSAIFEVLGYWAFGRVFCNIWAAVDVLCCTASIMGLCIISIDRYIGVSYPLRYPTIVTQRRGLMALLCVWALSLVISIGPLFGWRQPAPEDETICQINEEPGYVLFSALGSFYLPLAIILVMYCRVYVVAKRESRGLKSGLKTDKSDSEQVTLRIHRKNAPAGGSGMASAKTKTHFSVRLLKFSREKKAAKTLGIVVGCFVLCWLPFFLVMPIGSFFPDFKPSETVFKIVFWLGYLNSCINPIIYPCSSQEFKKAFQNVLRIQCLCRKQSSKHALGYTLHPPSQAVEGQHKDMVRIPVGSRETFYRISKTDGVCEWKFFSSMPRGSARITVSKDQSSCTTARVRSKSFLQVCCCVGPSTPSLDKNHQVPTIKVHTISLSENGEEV

[5] = target: T3, Muscarinic acetylcholine receptor M1 (Homo sapiens, UniProt P11229)
T3 sequence (P11229 whole entry): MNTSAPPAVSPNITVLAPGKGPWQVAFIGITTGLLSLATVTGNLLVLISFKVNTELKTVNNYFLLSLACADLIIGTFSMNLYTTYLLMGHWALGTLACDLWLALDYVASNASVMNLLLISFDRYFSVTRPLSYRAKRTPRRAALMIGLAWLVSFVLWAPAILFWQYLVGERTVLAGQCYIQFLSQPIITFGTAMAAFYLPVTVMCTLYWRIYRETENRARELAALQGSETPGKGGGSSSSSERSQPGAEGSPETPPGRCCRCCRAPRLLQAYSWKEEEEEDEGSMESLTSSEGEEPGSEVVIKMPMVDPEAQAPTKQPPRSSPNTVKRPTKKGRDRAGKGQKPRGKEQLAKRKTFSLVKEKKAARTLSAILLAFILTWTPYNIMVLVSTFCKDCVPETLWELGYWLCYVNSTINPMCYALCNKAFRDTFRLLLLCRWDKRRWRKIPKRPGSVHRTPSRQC

[6] = target: T4, Oxysterols receptor LXR-beta (Homo sapiens, UniProt P55055); type: functional
T4 sequence (P55055 whole entry): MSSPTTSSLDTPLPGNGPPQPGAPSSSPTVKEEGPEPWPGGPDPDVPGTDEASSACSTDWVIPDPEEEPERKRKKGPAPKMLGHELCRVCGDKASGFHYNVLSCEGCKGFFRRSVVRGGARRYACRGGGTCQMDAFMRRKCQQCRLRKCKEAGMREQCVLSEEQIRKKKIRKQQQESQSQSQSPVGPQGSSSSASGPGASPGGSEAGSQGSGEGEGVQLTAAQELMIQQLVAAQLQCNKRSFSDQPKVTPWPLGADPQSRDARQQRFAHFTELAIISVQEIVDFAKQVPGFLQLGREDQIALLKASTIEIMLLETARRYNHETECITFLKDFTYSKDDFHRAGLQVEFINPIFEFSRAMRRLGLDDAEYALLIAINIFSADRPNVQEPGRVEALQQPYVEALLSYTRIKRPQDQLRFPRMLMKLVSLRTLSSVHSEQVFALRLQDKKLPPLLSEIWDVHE

[7] = target: T4, Oxysterols receptor LXR-beta; type: functional; remark: listed apart in the source
[8] = target: T5, Oxysterols receptor LXR-alpha (Homo sapiens, UniProt Q13133); type: functional
T5 sequence (Q13133 whole entry): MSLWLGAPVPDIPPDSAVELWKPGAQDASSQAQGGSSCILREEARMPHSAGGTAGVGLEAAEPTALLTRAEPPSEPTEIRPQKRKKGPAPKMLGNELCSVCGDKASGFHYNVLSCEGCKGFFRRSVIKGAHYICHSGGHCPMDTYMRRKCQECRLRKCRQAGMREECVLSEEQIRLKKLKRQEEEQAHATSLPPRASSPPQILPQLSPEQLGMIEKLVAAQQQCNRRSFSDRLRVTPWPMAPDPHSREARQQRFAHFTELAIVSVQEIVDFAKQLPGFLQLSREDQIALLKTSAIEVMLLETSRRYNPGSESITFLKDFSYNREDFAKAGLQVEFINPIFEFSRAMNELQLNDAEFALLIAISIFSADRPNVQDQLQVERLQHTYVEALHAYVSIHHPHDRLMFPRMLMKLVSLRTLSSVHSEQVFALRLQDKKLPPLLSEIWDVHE

[9] = target: T6, Retinoic acid receptor gamma (Homo sapiens, UniProt P13631); type: functional, cell-based
T6 sequence (P13631 whole entry): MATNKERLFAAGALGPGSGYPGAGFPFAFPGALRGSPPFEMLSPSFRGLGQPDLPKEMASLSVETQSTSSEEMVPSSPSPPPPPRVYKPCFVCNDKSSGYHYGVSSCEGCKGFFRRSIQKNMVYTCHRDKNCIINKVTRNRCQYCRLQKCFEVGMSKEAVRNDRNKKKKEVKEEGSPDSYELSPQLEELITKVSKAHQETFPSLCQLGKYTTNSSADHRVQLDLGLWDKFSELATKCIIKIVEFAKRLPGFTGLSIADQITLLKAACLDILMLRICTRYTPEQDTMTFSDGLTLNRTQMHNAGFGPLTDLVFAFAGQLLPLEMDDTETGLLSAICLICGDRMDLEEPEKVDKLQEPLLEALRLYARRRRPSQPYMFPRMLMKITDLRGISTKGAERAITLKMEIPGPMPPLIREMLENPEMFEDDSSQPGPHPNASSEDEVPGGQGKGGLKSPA
Also: assay procedure not described here.

Type-2 angiotensin II receptor, sequence (P50052 whole entry): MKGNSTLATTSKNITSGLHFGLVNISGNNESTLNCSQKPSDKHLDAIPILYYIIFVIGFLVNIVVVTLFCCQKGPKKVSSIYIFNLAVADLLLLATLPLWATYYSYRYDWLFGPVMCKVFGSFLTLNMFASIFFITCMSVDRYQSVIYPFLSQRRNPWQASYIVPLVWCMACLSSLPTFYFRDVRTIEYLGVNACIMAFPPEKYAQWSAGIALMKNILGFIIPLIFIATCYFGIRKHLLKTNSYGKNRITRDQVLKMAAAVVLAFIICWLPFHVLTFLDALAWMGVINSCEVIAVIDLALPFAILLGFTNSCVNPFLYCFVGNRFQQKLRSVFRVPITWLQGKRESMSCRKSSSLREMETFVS
Synaptic vesicular amine transporter, sequence (Q01827 whole entry): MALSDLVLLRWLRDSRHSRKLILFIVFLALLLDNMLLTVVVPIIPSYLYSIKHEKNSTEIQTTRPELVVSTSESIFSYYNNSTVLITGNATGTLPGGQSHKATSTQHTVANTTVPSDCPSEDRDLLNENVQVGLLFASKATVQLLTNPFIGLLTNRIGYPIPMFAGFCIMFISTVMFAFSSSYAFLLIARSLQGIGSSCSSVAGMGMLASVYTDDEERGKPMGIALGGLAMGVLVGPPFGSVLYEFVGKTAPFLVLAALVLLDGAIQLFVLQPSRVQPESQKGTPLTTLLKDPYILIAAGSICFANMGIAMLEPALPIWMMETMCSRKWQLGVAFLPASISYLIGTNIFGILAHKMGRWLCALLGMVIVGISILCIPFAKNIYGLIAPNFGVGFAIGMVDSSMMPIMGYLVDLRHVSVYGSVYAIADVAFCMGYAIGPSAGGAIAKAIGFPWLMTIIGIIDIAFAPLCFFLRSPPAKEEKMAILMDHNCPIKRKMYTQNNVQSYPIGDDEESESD

CCNC(C)Cc1cccc(C(F)(F)F)c1 (centres undefined) [FENFLURAMINE]
AC50 [1]: 3.71 µM

Cc1c(O)c(=O)ccn1C [DEFERIPRONE]
AC50 [2]: > 100 µM | AC50 [3]: > 100 µM

BIVALIRUDIN
AC50 [4]: > 30 µM | AC50 [5]: > 30 µM

CC(C)c1c(C(=O)Nc2ccccc2)c(-c2ccccc2)c(-c2ccc(F)cc2)n1CC[C@@H](O)C[C@@H](O)CC(=O)O [ATORVASTATIN]
AC50 [6]: > 30 µM | AC50 [7]: > 30 µM | AC50 [8]: > 30 µM | AC50 [9]: > 30 µM
